Earlier results on 1 molecule are cited in patent US7251609B1, “Method for conducting clinical trials over the internet” (The Trustees of Boston University, priority 1999, dated 2007).

The test system of this series is patients with knee OA.

As for `Cl.N[C@H]1C(O)O[C@H](CO)[C@@H](O)[C@@H]1O` (stereo partly drawn) [glucosamine hydrochloride], the major adverse events result (94 patients with knee OA) was “No major adverse events”. For the same molecule, the “rate of minor adverse symptoms” value (94 patients with knee OA, identical rate in glucosamine and placebo groups) is listed as 12%. The efficacy entry (study of Houpt et al, knee OA) is recorded as “only modest efficacy”.
